# From patent US20130274233A1, “MODULATORS OF HEDGEHOG SIGNALING PATHWAY” (priority 2012, published 2013)
# “And” between values parts separate entries of the source, which are not always exact repeats. Equal values may be shown once.
# Legend:
# Type in all cases: cell-based
# [1] = test system: Hh pathway activation induced by loss of suFU; assay: Gli-luciferase assay in suFU−/− mouse embryonic fibroblasts; settings: suFU−/− cells
# Method: (§1) Hh activity assays were performed using ShhLightll cells, Smo/Lightll cells, SmoM2/Lightll cells, and suFU−/− mouse embryonic fibroblasts. In the suFU−/− cells, Hh activity was measured after co-transfection with Gli driven firefly luciferase and TK-renilla luciferase reporters^41. Wnt activity was measured in 293 cells co-transfected with Top-flash and TK-renilla luciferase reporters^42. Cells were cultured and treated in 96 well assay plates (Corning) and incubated with Duo-Glo luciferase substrates (Promega) to measure firefly and renilla luciferase activity sequentially using a Top Count NX Microplate Scintillation and Luminescence Counter (Perkin Elmer). The renilla luciferase signal was used to normalize the firefly reporter activity.
# ShhLightII cells and SmoM2/LightII cells were cultured and treated in 96 well assay plates (Corning) and incubated with Duo-Glo luciferase substrates (Promega) to sequentially measure firefly and renilla luciferase activity. […] Wnt activity was measured following co-transfection of a Top-flash and renilla luciferase reporter. […] Luciferase signal was read by TopCount NX Microplate Scintillation and Luminescence Counter (Perkin Elmer). Quantitative PCR probes for Ptch1, Gli1, and β-actin were purchased from Applied Biosystems. […]
# [2] = biological target: T1, Smo::EGFP (Homo sapiens, UniProt Q99835); assay: SAG-induced Smo::GFP ciliary accumulation (3T3/Smo::GFP/Ivs::tagRFPT); settings: 3T3/Smo::GFP/Ivs::tagRFPT cells; 100 nM SAG; read-out: IC50, inhibition of SAG-induced Smo::GFP ciliary accumulation
# T1 construct: expressed in transfected cells
# T1 sequence (Q99835 28-787): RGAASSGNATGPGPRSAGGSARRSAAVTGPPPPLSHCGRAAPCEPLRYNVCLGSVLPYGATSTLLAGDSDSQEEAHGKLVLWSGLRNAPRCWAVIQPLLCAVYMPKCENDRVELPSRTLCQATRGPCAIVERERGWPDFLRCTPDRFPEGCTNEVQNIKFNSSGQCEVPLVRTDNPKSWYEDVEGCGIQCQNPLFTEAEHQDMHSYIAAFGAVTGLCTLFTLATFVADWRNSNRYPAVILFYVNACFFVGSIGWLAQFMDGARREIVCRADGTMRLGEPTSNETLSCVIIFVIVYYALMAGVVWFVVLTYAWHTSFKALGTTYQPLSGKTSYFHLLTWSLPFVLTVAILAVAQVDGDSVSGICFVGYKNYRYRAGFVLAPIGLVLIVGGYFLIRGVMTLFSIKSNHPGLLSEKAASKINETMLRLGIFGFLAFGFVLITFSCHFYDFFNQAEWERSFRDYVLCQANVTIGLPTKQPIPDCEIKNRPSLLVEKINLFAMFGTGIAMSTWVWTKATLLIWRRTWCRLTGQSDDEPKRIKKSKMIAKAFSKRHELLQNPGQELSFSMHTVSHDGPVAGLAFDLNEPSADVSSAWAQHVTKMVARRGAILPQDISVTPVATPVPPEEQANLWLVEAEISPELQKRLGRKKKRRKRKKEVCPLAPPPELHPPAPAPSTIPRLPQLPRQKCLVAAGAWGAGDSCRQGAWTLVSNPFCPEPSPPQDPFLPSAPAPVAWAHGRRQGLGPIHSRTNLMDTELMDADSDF
# Method: Cells were cultured and treated in 384-well imaging plate precoated with poly-D-Lysine (Greiner Bio-one), fixed with 4% paraformaldehyde (Electron Microscopy Sciences), and stained with Hoechst (Invitrogen). Images were collected using Opera High Content Screening System (Perkin Elmer). Activityl)ase (IDBS Inc, Emeryvill, Calif.) and Pipeline Pilot (Accelrys, Inc. San Diego, Calif.) were used for high content screening data management and analysis. Acapella 2.0 software (Evotec Technologies/PerkinElmer) was used to perform multi-parametrical high content image quantification. All the images for comparison were scanned with identical microscopic settings and analyzed with the same input parameters.
# (§2) Acapella 2.0 software (Evotec Technologies/PerkinElmer) was used to perform multi-parametric high content image quantification. Our image analysis script used Ivs::tagREPT to first determine the location of the PC and then Smo::EGFP to quantify the level of Smo present in the cilium.
# The inventors used the spot-finding algorithm in the RFP channel to find Ivs-rich spots. Each non-overlapping spot was based on a maximum 8 pixel-radius (when using a 40× objective) around a central intensity peak of 5 pixels. A distance of at least 10 pixels was required between adjacent spot centers. […] The average, maximum and total RFP intensity of each spot were measured. […]
# [3] = test system: SmoM2; assay: Gli-luciferase reporter induced by SmoM2::GFP overexpression (SmoM2/LightII cells)
# Description: NIH/3T3 cells were maintained in DMEM containing 10% (v/v) calf serum, penicillin, streptomycin, and L-glutamine. HEK293, L, cos 7, and suFU−/− mouse embryonic fibroblast cells were maintained in DMEM containing 10% (v/v) fetal bovine serum, penicillin, streptomycin, and L-glutamine. Smo::EGFP, SmoM2::GFP, and Ivs::tagRFPT were cloned into pBabe to generate retroviral particles for infection. Smo::EGFP/Ivs::tagRFPT and SmoM2::GFP/Ivs::tagRFPT stable cell lines were generated through viral infection of NIH/3T3^12. A ShhLightII Gli reporter cell line was obtained from the American Type Culture Collection (ATCC) and used in luciferase reporter assays to measure Hh pathway activity. The cell line contains a stably integrated Gli-responsive Firefly luciferase reporter and a constitutive Renilla luciferase expression construct^33. Subclones expressing Smo or SmoM2 in ShhLightII cells were used for chemical epistasis analyses.
# as §1
# (§3) ShhLightII cells and SmoM2/LightII cells were cultured and treated in 96 well assay plates (Corning) and incubated with Duo-Glo luciferase substrates (Promega) to sequentially measure firefly and renilla luciferase activity. Smo, or GFP, expression plasmids were co-transfected into 3T3 cells together with a Gli-responsive firefly reporter and a TK-renilla luciferase reporter contruct to monitor effects of Smo overexpression. Co-transfection of the two reporter constructs was conducted in assays measuring Hh pathway activity in suFU−/− cells. Wnt activity was measured following co-transfection of a Top-flash and renilla luciferase reporter. In both Hh and Wnt activity assays, renilla luciferase reporter activity, or mass of protein, was used to normalize expression values. Luciferase signal was read by TopCount NX Microplate Scintillation and Luminescence Counter (Perkin Elmer). Quantitative PCR probes for Ptch1, Gli1, and β-actin were purchased from Applied Biosystems. Reactions and measurements were performed using on an Applied Biosystems 7900HT at Harvard FAS Center of System Biology. β-actin was used to normalize Ptch1 and Gil1 values.
# [4] = test system: Hh pathway activity; assay: Gli-luciferase reporter assay, Hh pathway activation by compound alone (NIH/3T3 cells)
# Method: as §3
# [5] = test system: primary cilium (PC); assay: Primary cilium markers in the high content assay (Ivs::tagRFPT, Arl13b, acetylated tubulin); settings: Ivs::tagRFPT and other PC markers
# Description: as §2
# The inventors used the spot-finding algorithm in the RFP channel to find Ivs-rich spots. Each non-overlapping spot was based on a maximum 8 pixel-radius (when using a 40× objective) around a central intensity peak of 5 pixels. A distance of at least 10 pixels was required between adjacent spot centers. Spot peaks had to exceed thresholds of relative intensity compared to the remaining body of the spot as well as to the entire image. The average, maximum and total RFP intensity of each spot were measured. The spots with sufficiently high absolute maxima to pass the selected threshold were classified as positive spots. To form candidate cilia, the inventors selected the brightest 15% of the pixels in each positive spot and merged those pixels into objects so that the brightest parts of adjacent spots could form single, larger cilia-shaped objects. To qualify the candidate cilia as true Ivs-positive cilia, the width of the objects created from merging the brightest pixels in each spot had to be at least 2 pixels and the length to half-width ratio had to exceed 3. (i.e. a 3-pixel long by 2-pixel wide cilium was the minimum accepted cilium size and the length had to be at least 1.5 fold of the width). The mean GFP intensity within these Ivs-positive cilia was used to estimate the ciliary level of Smo protein. The inventors subtracted the background of the mean GFP intensity in the 3-pixel wide area around each candidate cilium to avoid some false positives. Those Ivs-positive cilia that exceed the final mean GFP intensity threshold set for each experiment were deemed Smo-positive cilia. […]
# Cells were cultured and treated in 384-well imaging plate precoated with poly-D-Lysine (Greiner Bio-one), fixed with 4% paraformaldehyde (Electron Microscopy Sciences), and stained with Hoechst (Invitrogen). […] Acapella 2.0 software (Evotec Technologies/PerkinElmer) was used to perform multi-parametric image quantification. All the comparative images were scanned with identical microscopic setting and analyzed with the same input parameters.
smiles,measurement,setting,value
CCN(CC)c1ccc(/C=N/NC(=O)c2ccc(O)cc2)cc1 [DY131],effect on Hh pathway activation induced by loss of suFU,[1],does not alter
same,IC50,[2],~2000 nM and 2000 nM
same,IC50,"[3]; Mus musculus, Shh Light II, 3T3/SmoM2::GFP Overexpression/Shh-LightII, stimulus none, read-out: IC50, inhibition of expression of Gli-luciferase reporter induced by SmoM2::GFP overexpression",> 30000 nM
same,"effect on SmoM2 driven Hh pathway activity, transcriptional reporter",[3]; SmoM2 overexpression,failed to inhibit
"CC1(C)O[C@@H]2C[C@H]3[C@@H]4C[C@H](F)C5=CC(=O)C=C[C@]5(C)[C@@]4(F)[C@@H](O)C[C@]3(C)[C@]2(C(=O)CO)O1 [FA, fluocinolone acetonide]",Hh pathway activation in transcription reporter assay,[4]; FA 10 μM,no pathway activation was observed
same,transcriptional response in Gli-luciferase reporter assay,[4]; FA >50 μM,4 fold
same,EC50,"[4]; Mus musculus, NIH3T3, Gli-luciferase reporter, compound alone, read-out: EC50 for weak transcriptional activation",> 50000 nM
same,effect on primary cilium markers / ciliary structure,[5],unaltered
